Converted amounts (≈) assume the structure as drawn.
Columns and labels:
Assay type in all cases: cell-based
[1] = system: M. suipneumoniae HK(2); assay: Anti-mycoplasmal in vitro MIC; conditions: Mesomycoplasma hyopneumoniae, 144 h, Friis broth solidified with 0.9% agarose, 6 days incubation at 37°C
[2] = system: M. suipneumoniae Str. 11; assay: Anti-mycoplasmal in vitro MIC; conditions: Mesomycoplasma hyopneumoniae, 144 h, Friis broth solidified with 0.9% agarose, 6 days incubation at 37°C
[3] = system: M. bovis NCTC 10131; assay: microbe, parasite or virus in culture; conditions: NCTC10131, 144 h
[4] = system: Corynebacterium pyogenes CY1; assay: Veterinary bacteria MIC; conditions: Trueperella pyogenes, Diagnostic Sensitivity Test Agar, 18 hours at 37°C
Method: (§1) The values were determined using a two fold serial dilutions.in Diagnostic Sensitivity Test Agar with an inoculum of 10^4 organisms and incubation for 18 hours at 37°C.

[5] = system: E. Coli E1; assay: Veterinary bacteria MIC; conditions: Escherichia coli, Diagnostic Sensitivity Test Agar, 18 hours at 37°C
Method: as §1

[6] = system: E. Coli NCTC 10418; assay: Veterinary bacteria MIC; conditions: Escherichia coli, NCTC10418, Diagnostic Sensitivity Test Agar, 18 hours at 37°C
Method: as §1

[7] = system: Erysipelothrix rhusiopathiae NCTC 8163; assay: Veterinary bacteria MIC; conditions: NCTC8163, Diagnostic Sensitivity Test Agar, 18 hours at 37°C
Method: as §1

[8] = system: Past. haemolytica PA5; assay: Veterinary bacteria MIC; conditions: Mannheimia haemolytica, Diagnostic Sensitivity Test Agar, 18 hours at 37°C
Method: as §1

[9] = system: Past. multocida PA1; assay: Veterinary bacteria MIC; conditions: Pasteurella multocida, Diagnostic Sensitivity Test Agar, 18 hours at 37°C
Method: as §1

[10] = system: S. dublin S7; assay: Veterinary bacteria MIC; conditions: Salmonella enterica, Diagnostic Sensitivity Test Agar, 18 hours at 37°C
Method: as §1

[11] = system: S. typhimurium S18; assay: Veterinary bacteria MIC; conditions: Salmonella enterica, Diagnostic Sensitivity Test Agar, 18 hours at 37°C
Method: as §1

[12] = system: Staph. aureus 152; assay: Veterinary bacteria MIC; conditions: Staphylococcus aureus, Diagnostic Sensitivity Test Agar, 18 hours at 37°C
Method: as §1

[13] = system: Staph. aureus B4; assay: Veterinary bacteria MIC; conditions: Staphylococcus aureus, Diagnostic Sensitivity Test Agar, 18 hours at 37°C
Method: as §1

[14] = system: Staph. aureus Oxford; assay: Veterinary bacteria MIC; conditions: Staphylococcus aureus, Diagnostic Sensitivity Test Agar, 18 hours at 37°C
Method: as §1

[15] = system: Strep. agalactiae SPA1; assay: Veterinary bacteria MIC; conditions: Streptococcus agalactiae, Diagnostic Sensitivity Test Agar, 18 hours at 37°C
Method: as §1

[16] = system: Strep. dysgalactiae SPD1; assay: Veterinary bacteria MIC; conditions: Streptococcus dysgalactiae, Diagnostic Sensitivity Test Agar, 18 hours at 37°C
Method: as §1

[17] = system: Strep. suis (group D) SPS11; assay: Veterinary bacteria MIC; conditions: Streptococcus suis, Diagnostic Sensitivity Test Agar, 18 hours at 37°C
Method: as §1

[18] = system: Haemophilus influenzae Q1; assay: Human bacteria MIC; conditions: nutrient agar with 5% chocolated horse blood, 18 hours at 37°C
Method: (§2) The values were determined by serial dilutions in nutrient agar with 5% chocolated horse blood after incubations for 18 hours at 37 °C.

[19] = system: Strep. pyogenes R80/421-A; assay: Human bacteria MIC; conditions: Streptococcus pyogenes, nutrient agar with 5% chocolated horse blood, 18 hours at 37°C
Method: as §2

[20] = system: Haemophilus influenzae Wy21; assay: Human bacteria MIC; conditions: nutrient agar with 5% chocolated horse blood, 18 hours at 37°C
Method: as §2

[21] = system: Strep. 2788-B; assay: Human bacteria MIC; conditions: nutrient agar with 5% chocolated horse blood, 18 hours at 37°C
Method: as §2

[22] = system: Strep. pneumoniae CN33; assay: Human bacteria MIC; conditions: Streptococcus pneumoniae, nutrient agar with 5% chocolated horse blood, 18 hours at 37°C
Method: as §2

[23] = system: Treponema hyodysenterial B10; assay: Swine dysentery MIC (inhibition of β-haemolysis); conditions: 72 h, Strain B10, horse blood agar, 37°C for 3 days, anaerobic, lowest concentration to inhibit β-haemolysis
Method: (§3) The activity of the compounds of Examples 2 and 3 against various strains of Treponema hyodysenterial, associated with swine dysentry, were determined.
(§4) MIC values (µg/ml) of the compounds were determined by incorporating the compounds in horse blood agar, inoculating (multi-point) with 0.001 ml of 3 day growth from base of blood slope (+ 1 ml foetal calf serum) and incubating at 37°C for 3 days under aneorobic conditions (Gas Pak 150). The MIC values were taken as the lowest concentrations to inhibit β-haemolysis.

[24] = system: Treponema hyodysenterial Navis; assay: Swine dysentery MIC (inhibition of β-haemolysis); conditions: 72 h, Strain Navis, horse blood agar, 37°C for 3 days, anaerobic, lowest concentration to inhibit β-haemolysis
Method: as §3, §4

[25] = system: Treponema hyodysenterial P23; assay: Swine dysentery MIC (inhibition of β-haemolysis); conditions: 72 h, Strain P23, horse blood agar, 37°C for 3 days, anaerobic, lowest concentration to inhibit β-haemolysis
Method: as §3, §4

[26] = system: Treponema hyodysenterial S73/2; assay: Swine dysentery MIC (inhibition of β-haemolysis); conditions: 72 h, Strain S73/2, horse blood agar, 37°C for 3 days, anaerobic, lowest concentration to inhibit β-haemolysis
Method: as §3, §4

[27] = system: Treponema hyodysenterial S77/10; assay: Swine dysentery MIC (inhibition of β-haemolysis); conditions: 72 h, Strain S77/10, horse blood agar, 37°C for 3 days, anaerobic, lowest concentration to inhibit β-haemolysis
Method: as §3, §4

[28] = system: Treponema hyodysenterial S77/2; assay: Swine dysentery MIC (inhibition of β-haemolysis); conditions: 72 h, Strain S77/2, horse blood agar, 37°C for 3 days, anaerobic, lowest concentration to inhibit β-haemolysis
Method: as §3, §4

[29] = system: Treponema hyodysenterial TH3; assay: Swine dysentery MIC (inhibition of β-haemolysis); conditions: 72 h, Strain TH3, horse blood agar, 37°C for 3 days, anaerobic, lowest concentration to inhibit β-haemolysis
Method: as §3, §4

Structure (SMILES) | MIC [1] [µg/mL] | MIC [2] [µg/mL] | MIC [3] [µg/mL] | MIC [4] [µg/mL] | MIC [5] [µg/mL] | MIC [6] [µg/mL] | MIC [7] [µg/mL] | MIC [8] [µg/mL] | MIC [9] [µg/mL] | MIC [10] [µg/mL] | MIC [11] [µg/mL] | MIC [12] [µg/mL] | MIC [13] [µg/mL] | MIC [14] [µg/mL] | MIC [15] [µg/mL] | MIC [16] [µg/mL] | MIC [17] [µg/mL] | MIC [18] [µg/mL] | MIC [19] [µg/mL] | MIC [20] [µg/mL] | other results
C/C(=C\C(=O)OCc1cc(C#N)cc(C#N)c1)CC1OCC(CC2OC2C(C)C(C)O)C(O)C1O (centres unmarked) [Example 6, 3,5-Dicyanobenzyl monate A] | 0.1 (≈ 0.206 µM) | 0.05 (≈ 0.103 µM) | 0.025 (≈ 0.0516 µM) | > 80 | > 80 | > 80 | 80 (≈ 165 µM) | 10 (≈ 20.6 µM) | 5 (≈ 10.3 µM) | > 80 | > 80 | 5 (≈ 10.3 µM) | 5 (≈ 10.3 µM) | 5 (≈ 10.3 µM) | 0.625 (≈ 1.29 µM) | 0.625 (≈ 1.29 µM) | 40 (≈ 82.6 µM) | 0.5 (≈ 1.03 µM) | 1 (≈ 2.06 µM) |  | 
C/C(=C\C(=O)OCc1ccccc1C#N)CC1OCC(CC2OC2C(C)C(C)O)C(O)C1O (centres unmarked) [Example 1, o-Cyanobenzyl monate A] | 1 (≈ 2.18 µM) | 1 (≈ 2.18 µM) |  | > 80 | > 80 | > 80 | 80 (≈ 174 µM) | 10 (≈ 21.8 µM) | 1.25 (≈ 2.72 µM) | > 80 | > 80 | 1.25 (≈ 2.72 µM) | 1.25 (≈ 2.72 µM) | 1.25 (≈ 2.72 µM) | 2.5 (≈ 5.44 µM) | 0.312 (≈ 0.679 µM) | 10 (≈ 21.8 µM) | 0.25 (≈ 0.544 µM) | 0.5 (≈ 1.09 µM) | 0.25 (≈ 0.544 µM) | MIC [21]: 5 µg/mL (≈ 10.9 µM); MIC [22]: 1 µg/mL (≈ 2.18 µM)
C/C(=C\C(=O)OC(C)c1ccc(C#N)cc1)CC1OCC(CC2OC2C(C)C(C)O)C(O)C1O (centres unmarked) [Example 4, 1-(p-Cyanophenyl)ethyl monate A] | 2.5 (≈ 5.28 µM) | 1 (≈ 2.11 µM) | ≤ 0.01 | > 80 | > 80 | > 80 | 40 (≈ 84.5 µM) | 40 (≈ 84.5 µM) | 10 (≈ 21.1 µM) | > 80 | > 80 | 5 (≈ 10.6 µM) | 10 (≈ 21.1 µM) | 2.5 (≈ 5.28 µM) | 10 (≈ 21.1 µM) | 1.25 (≈ 2.64 µM) | 20 (≈ 42.2 µM) | 0.5 (≈ 1.06 µM) |  | 0.5 (≈ 1.06 µM) | MIC [21]: 5 µg/mL (≈ 10.6 µM); MIC [22]: 2.5 µg/mL (≈ 5.28 µM)
C/C(=C\C(=O)OCc1ccc(C#N)cc1)CC1OCC(CC2OC2C(C)C(C)O)C(O)C1O (centres unmarked) [Example 3, p-Cyanobenzyl monate A] | 0.25 (≈ 0.544 µM) | 0.1 (≈ 0.218 µM) | < 0.01 | > 80 | 80 (≈ 174 µM) | 80 (≈ 174 µM) | 40 (≈ 87 µM) | 2.5 (≈ 5.44 µM) | 0.625 (≈ 1.36 µM) | > 80 | 80 (≈ 174 µM) | 0.312 (≈ 0.679 µM) | 0.625 (≈ 1.36 µM) | 0.312 (≈ 0.679 µM) | 1.25 (≈ 2.72 µM) | 0.156 (≈ 0.339 µM) | 2.5 (≈ 5.44 µM) | 0.1 (≈ 0.218 µM) | 0.1 (≈ 0.218 µM) |  | MIC [21]: 0.5 µg/mL (≈ 1.09 µM); MIC [22]: 0.25 µg/mL (≈ 0.544 µM); MIC [23]: 20 µg/mL (≈ 43.5 µM); MIC [24]: 10 µg/mL (≈ 21.8 µM); MIC [25]: 40 µg/mL (≈ 87 µM); MIC [26]: 5 µg/mL (≈ 10.9 µM); MIC [27]: 10 µg/mL (≈ 21.8 µM); MIC [28]: 10 µg/mL (≈ 21.8 µM); MIC [29]: 5 µg/mL (≈ 10.9 µM)
C/C(=C\C(=O)OCc1cccc(C#N)c1)CC1OCC(C/C=C/C(C)C(C)O)C(O)C1O (centres unmarked) [Example 5, m-Cyanobenzyl monate C] | 1 (≈ 2.25 µM) | 0.5 (≈ 1.13 µM) | 0.05 (≈ 0.113 µM) | > 80 | > 80 | > 80 | 80 (≈ 180 µM) | 40 (≈ 90.2 µM) | 10 (≈ 22.5 µM) | > 80 | > 80 | 2.5 (≈ 5.64 µM) | 2.5 (≈ 5.64 µM) | 2.5 (≈ 5.64 µM) | 2.5 (≈ 5.64 µM) | 0.156 (≈ 0.352 µM) | > 80 |  | 2.5 (≈ 5.64 µM) | 2.5 (≈ 5.64 µM) | MIC [21]: 5 µg/mL (≈ 11.3 µM)
C/C(=C\C(=O)OCc1cccc(C#N)c1)CC1OCC(CC2OC2C(C)C(C)O)C(O)C1O (centres unmarked) [Example 2, m-Cyanobenzyl monate A] | 0.1 (≈ 0.218 µM) | 0.05 (≈ 0.109 µM) | ≤ 0.01 | > 80 | 80 (≈ 174 µM) | 80 (≈ 174 µM) | 20 (≈ 43.5 µM) | 2.5 (≈ 5.44 µM) | 0.625 (≈ 1.36 µM) | 80 (≈ 174 µM) | 80 (≈ 174 µM) | 0.625 (≈ 1.36 µM) | 1.25 (≈ 2.72 µM) | 0.625 (≈ 1.36 µM) | 0.625 (≈ 1.36 µM) | 0.312 (≈ 0.679 µM) | 2.5 (≈ 5.44 µM) | 0.1 (≈ 0.218 µM) |  | 0.1 (≈ 0.218 µM) | MIC [22]: 0.5 µg/mL (≈ 1.09 µM); MIC [23]: 10 µg/mL (≈ 21.8 µM); MIC [24]: 10 µg/mL (≈ 21.8 µM); MIC [25]: 10 µg/mL (≈ 21.8 µM); MIC [27]: 10 µg/mL (≈ 21.8 µM); MIC [28]: 10 µg/mL (≈ 21.8 µM)

— patent publication EP0052437A1, “Antibacterial compounds, processes for their preparation and compositions containing them” (BEECHAM GROUP PLC, priority 1980, dated 1982)
